Among the data in patent US12577206B2 (BRISTOL-MYERS SQUIBB COMPANY, priority 2020, dated 2026) are EC50 values, retold here.

Bounds are passed on as bounds.

One assay concerns the target T1, human FPR1 (Homo sapiens, UniProt P21462).
T1 sequence (P21462 1-350): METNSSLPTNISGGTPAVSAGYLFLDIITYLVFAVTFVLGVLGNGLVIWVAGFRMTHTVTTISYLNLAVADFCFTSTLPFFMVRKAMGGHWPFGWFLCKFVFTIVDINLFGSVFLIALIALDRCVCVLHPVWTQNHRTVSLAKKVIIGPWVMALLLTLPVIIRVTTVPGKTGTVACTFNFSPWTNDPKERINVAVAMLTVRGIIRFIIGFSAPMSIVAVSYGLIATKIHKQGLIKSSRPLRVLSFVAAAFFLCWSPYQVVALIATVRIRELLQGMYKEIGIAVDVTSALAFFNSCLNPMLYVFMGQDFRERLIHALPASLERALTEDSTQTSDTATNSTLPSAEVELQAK
Kind of assay: FPR1 cyclic adenosine monophosphate (cAMP) assay. In kind it is cell-based. To be noted: CHO cells overexpressing human FPR1; forskolin 10 μM; inhibition of cAMP production; HTRF; read-out: hFPR1 cAMP2 EC50. The procedure, abridged: (§1)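 Inhibition of forskolin-stimulated cAMP (final forskolin 5 μM for FPR2, 10 μM for FPR1; IBMX 200 μM) was measured by HTRF in recombinant CHO cells after 30 min at room temperature.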

The next assay has as its target T2, human FPR2 (Homo sapiens, UniProt P25090).
T2 sequence (P25090 1-351): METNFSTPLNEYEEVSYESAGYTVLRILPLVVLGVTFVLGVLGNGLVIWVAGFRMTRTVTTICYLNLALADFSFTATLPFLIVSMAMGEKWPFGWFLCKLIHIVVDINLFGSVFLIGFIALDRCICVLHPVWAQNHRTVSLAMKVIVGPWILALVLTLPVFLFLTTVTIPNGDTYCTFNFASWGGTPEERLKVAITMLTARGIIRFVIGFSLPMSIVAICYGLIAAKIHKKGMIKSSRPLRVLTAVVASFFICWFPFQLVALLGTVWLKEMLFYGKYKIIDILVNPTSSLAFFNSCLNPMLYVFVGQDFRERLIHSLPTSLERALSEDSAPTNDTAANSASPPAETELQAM
Kind of assay: FPR2 cyclic adenosine monophosphate (cAMP) assay. In kind it is cell-based. To be noted: CHO cells overexpressing human FPR2; forskolin 5 μM; inhibition of cAMP production; HTRF; read-out: hFPR2 cAMP2 EC50. The method in brief:
as §1
Background: cAMP levels reflect the balance of adenylyl cyclase and phosphodiesterase activity.

On to `COc1cc(F)c(-c2c(NC(=O)c3ccc(OC(F)F)cc3)c(=O)n(-c3nc(N(CCO)CCO)ccc3C(F)(F)F)n2C)c(F)c1` [Example 139, N-(2-{6-[bis(2-hydroxyethyl)amino]-3-(trifluoromethyl)pyridin-2-yl}-5-(2,6-difluoro-4-methoxyphenyl)-1-methyl-3-oxo-2,3-dihydro-1H-pyrazol-4-yl)-4-(difluoromethoxy)benzamide], for which the EC50 on human FPR1 was greater than 10000 nM; on human FPR2 it was 3 nM.
The like results for `COc1cc(C2CCCNC2)nc(-n2c(=O)c(NC(=O)c3ccc(OC(F)F)cc3)c(-c3c(F)cc(OC)cc3F)n2C)c1` (centres unmarked) [Example 346, N-(5-(2,6-Difluoro-4-methoxyphenyl)-2-(4-methoxy-6-(piperidin-3-yl)pyridin-2-yl)-1-methyl-3-oxo-2,3-dihydro-1H-pyrazol-4-yl)-4-(difluoromethoxy)benzamide] were, in that order, greater than 10000 nM and 5 nM.
In the same order, the values of `COc1cc(F)c(-c2c(NC(=O)c3ccc(OC(F)F)cc3)c(=O)n(-c3nc(OC)ccc3C(F)(F)F)n2C)c(F)c1` [Example 257, N-[5-(2,6-difluoro-4-methoxyphenyl)-2-[6-methoxy-3-(trifluoromethyl)pyridin-2-yl]-1-methyl-3-oxo-2,3-dihydro-1H-pyrazol-4-yl]-4-(difluoromethoxy)benzamide] are greater than 10000 nM and 10 nM.
The like results for `COc1cc(F)c(-c2c(NC(=O)c3ccc(OC(F)F)cc3)c(=O)n(-c3nc(N4CCCC4=O)ccc3C(F)(F)F)n2C)c(F)c1` [Example 297, N-[5-(2,6-difluoro-4-methoxyphenyl)-1-methyl-3-oxo-2-[6-(2-oxopyrrolidin-1-yl)-3-(tifluoromethyl)pyridin-2-yl]-2,3-dihydro-1H-pyrazol-4-yl]-4-(difluoromethoxy)benzamide] were, in that order, 380 nM and 2 nM.
On to `COc1cc(F)c(-c2c(NC(=O)c3ccc(OC(F)F)cc3)c(=O)n(-c3nc(C(C)(C)O)ccc3C#N)n2C)c(F)c1` [Example 291, N-{2-[3-cyano-6-(2-hydroxypropan-2-yl)pyridin-2-yl]-5-(2,6-difluoro-4-methoxyphenyl)-1-methyl-3-oxo-2,3-dihydro-1H-pyrazol-4-yl}-4-(difluoromethoxy)benzamide], for which the EC50 is greater than 10000 nM on human FPR1 and 2 nM on human FPR2.
The like results for `[2H]C([2H])([2H])Oc1cc(F)c(-c2c(NC(=O)c3ccc(OC(F)(F)F)cc3)c(=O)n(-c3cccc(C(C)(C)O)n3)n2C)c(F)c1` [Example 405, N-(5-(2,6-difluoro-4-(methoxy-d3)phenyl)-2-(6-(2-hydroxypropan-2-yl)pyridin-2-yl)-1-methyl-3-oxo-2,3-dihydro-1H-pyrazol-4-yl)-4-(trifluoromethoxy)benzamide] were, in that order, 390 nM and 8 nM.
Consider `COc1cc(F)c(-c2c(NC(=O)c3ccc(OC(F)F)cc3)c(=O)n(-c3cncc(OC)n3)n2C)c(F)c1` [Example 71, N-[5-(2,6-difluoro-4-methoxyphenyl)-2-(6-methoxypyrazin-2-yl)-1-methyl-3-oxo-2,3-dihydro-1H-pyrazol-4-yl]-4-(difluoromethoxy)benzamide], for which the results for the EC50 at human FPR1 and on human FPR2 were 2600 nM and 20 nM, respectively.
In the same order, the values of `COc1cc(C2CCCN(CCO)C2)nc(-n2c(=O)c(NC(=O)c3ccc(OC(F)F)cc3)c(-c3c(F)cc(OC)cc3F)n2C)c1` (centres unmarked) [Example 340, N-(5-(2,6-Difluoro-4-methoxyphenyl)-2-(6-(1-(2-hydroxyethyl)piperidin-3-yl)-4-methoxypyridin-2-yl)-1-methyl-3-oxo-2,3-dihydro-1H-pyrazol-4-yl)-4-(difluoromethoxy)benzamide] are greater than 10000 nM and 10 nM.
Regarding `COc1cc(F)c(-c2c(NC(=O)c3ccc(OC(F)F)cc3)c(=O)n(-c3nccc(C)c3Cl)n2C)c(F)c1` [Example 180, N-[2-(3-chloro-4-methylpyridin-2-yl)-5-(2,6-difluoro-4-methoxyphenyl)-1-methyl-3-oxo-2,3-dihydro-1H-pyrazol-4-yl]-4-(difluoromethoxy)benzamide], the EC50 on human FPR1 is greater than 10000 nM; at human FPR2, 8 nM.
In the same order, the values of `COc1cc(F)c(-c2c(NC(=O)c3ccc(OC(F)F)cc3)c(=O)n(-c3cccc(F)c3Cl)n2C)c(F)c1` [Example 175, N-[2-(2-chloro-3-fluorophenyl)-5-(2,6-difluoro-4-methoxyphenyl)-1-methyl-3-oxo-2,3-dihydro-1H-pyrazol-4-yl]-4-(difluoromethoxy)benzamide] are greater than 10000 nM and 25 nM.
As to `COc1cc(F)c(-c2c(NC(=O)c3ccc(OC(F)F)cc3)c(=O)n(-c3cc(Cl)cc(Cl)c3)n2C)c(F)c1` [Example 127, N-[2-(3,5-dichlorophenyl)-5-(2,6-difluoro-4-methoxyphenyl)-1-methyl-3-oxo-2,3-dihydro-1H-pyrazol-4-yl]-4-(difluoromethoxy)benzamide], the concentration for a half-maximal effect (EC50) is greater than 10000 nM on human FPR1 and 8 nM on human FPR2.
The like results for `COc1cc(N2C[C@@H](C)O[C@@H](C)C2)nc(-n2c(=O)c(NC(=O)c3ccc(OC(F)F)cc3)c(-c3c(F)cc(OC)cc3F)n2C)c1` [Example 92, N-[5-(2,6-difluoro-4-methoxyphenyl)-2-{6-[(2R,6S)-2,6-dimethylmorpholin-4-yl]-4-methoxypyridin-2-yl}-1-methyl-3-oxo-2,3-dihydro-1H-pyrazol-4-yl]-4-(difluoromethoxy)benzamide] were, in that order, 2100 nM and 16 nM.
Turning to `COc1cc(F)c(-c2c(NC(=O)c3ccc(OC(F)F)cc3)c(=O)n(-c3nc(N4CCN(C)CC4)ccc3C#N)n2C)c(F)c1` [Example 202, N-{2-[3-cyano-6-(4-methylpiperazin-1-yl)pyridin-2-yl]-5-(2,6-difluoro-4-methoxyphenyl)-1-methyl-3-oxo-2,3-dihydro-1H-pyrazol-4-yl}-4-(difluoromethoxy)benzamide], the EC50 at human FPR1 turned out to be 2500 nM; on human FPR2, 32 nM.
In the same order, the values of `COc1cc(F)c(-c2c(NC(=O)c3ccc(OC(F)F)cc3)c(=O)n(-c3cc(C)cc(C)n3)n2C)c(F)c1` [Example 65, N-[5-(2,6-difluoro-4-methoxyphenyl)-2-(4,6-dimethylpyridin-2-yl)-1-methyl-3-oxo-2,3-dihydro-1H-pyrazol-4-yl]-4-(difluoromethoxy)benzamide] are greater than 10000 nM and 8 nM.
For the molecule `COc1cc(F)c(-c2c(NC(=O)c3ccc(OC(F)F)cc3)c(=O)n(-c3nc(N4CC(C)(O)C4)ccc3F)n2C)c(F)c1` [Example 210, N-[5-(2,6-difluoro-4-methoxyphenyl)-2-[3-fluoro-6-(3-hydroxy-3-methylazetidin-1-yl)pyridin-2-yl]-1-methyl-3-oxo-2,3-dihydro-1H-pyrazol-4-yl]-4-(difluoromethoxy)benzamide], the concentration for a half-maximal effect (EC50) on human FPR1 was 4800 nM; on human FPR2, 11 nM.
The like results for `CC(C)Oc1cc(OCC(C)(C)O)nc(-n2c(=O)c(NC(=O)c3ccc(OC(F)(F)F)cc3)c(-c3c(F)cc(Cl)cc3F)n2C)c1` [Example 408, N-(5-(4-chloro-2,6-difluorophenyl)-2-(6-(2-hydroxy-2-methylpropoxy)-4-isopropoxypyridin-2-yl)-1-methyl-3-oxo-2,3-dihydro-1H-pyrazol-4-yl)-4-(trifluoromethoxy)benzamide] were, in that order, 1100 nM and 7 nM.

What is called EC50 is the midpoint of the concentration-response curve.
